Earlier results on three compounds are cited in patent publication US7884104B2, “Aminopiperidines as dipeptidyl peptidase-IV inhibitors for the treatment or prevention of diabetes” (Merck Sharp & Dohme Corp., priority 2004, dated 2011).

The target of one series is T1, DPP-IV (Homo sapiens, UniProt P27487).
T1 construct: GRF is rapidly degraded in plasma to GRF[344]; host or cells: plasma (endogenous enzyme activity)

For a further series, the system named is cardiac allograft. As to conditions: rats; doubled from day 7 to day 14.
In a further series the test system is hematopoiesis. As to conditions: mouse, cyclophosphamide-induced neutropenia.

T1 sequence (P27487 39-766 limits assumed, species assumed): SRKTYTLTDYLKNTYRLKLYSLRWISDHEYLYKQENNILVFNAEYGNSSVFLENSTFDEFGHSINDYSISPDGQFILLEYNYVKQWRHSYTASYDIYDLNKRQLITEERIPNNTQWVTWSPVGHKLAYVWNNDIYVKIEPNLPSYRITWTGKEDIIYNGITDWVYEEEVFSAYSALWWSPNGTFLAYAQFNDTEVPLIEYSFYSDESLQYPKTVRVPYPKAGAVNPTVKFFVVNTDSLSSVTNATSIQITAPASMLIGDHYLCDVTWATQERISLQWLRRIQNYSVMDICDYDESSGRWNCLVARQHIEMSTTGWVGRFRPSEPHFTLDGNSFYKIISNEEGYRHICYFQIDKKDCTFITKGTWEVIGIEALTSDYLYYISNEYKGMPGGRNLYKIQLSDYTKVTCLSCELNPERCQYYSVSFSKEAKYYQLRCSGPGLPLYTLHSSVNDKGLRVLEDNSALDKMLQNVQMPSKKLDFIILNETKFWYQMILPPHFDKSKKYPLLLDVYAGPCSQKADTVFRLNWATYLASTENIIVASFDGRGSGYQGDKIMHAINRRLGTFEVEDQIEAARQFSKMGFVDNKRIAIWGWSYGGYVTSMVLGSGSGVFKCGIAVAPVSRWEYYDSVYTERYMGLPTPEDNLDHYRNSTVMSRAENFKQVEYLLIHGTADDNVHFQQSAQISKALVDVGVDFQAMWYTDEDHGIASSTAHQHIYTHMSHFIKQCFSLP

With diprotin A, the “effect on degradation of GRF in plasma” value on DPP-IV is reported as “prevented”.
With `CC(C)N1CCC(c2ccccc2)(c2ccccc2)CC1` [Prodipine, Pro-Pro-diphenyl-phosphonate], the cardiac allograft survival in the series on cardiac allograft is recorded as 14 day.
Consider `CC(C)[C@H](N)C(=O)N1CCC[C@H]1B(O)O` [Val-Boro-Pro], for which the effect on hematopoiesis result with hematopoiesis is “stimulated hematopoiesis”.
